Assay results from patent US20060084628A1, “Combination therapy for treating viral infections” (priority 2004, published 2006).
Read-outs that look alike come from different tables or passages of the source.

Tests used:
HBV = test: Efficacy of daily dosing for HBV; format: in vivo, human; conditions: 5 mg QD dose
Experimental: (§1) From the foregoing results, a therapeutic window of Elvucitabine was identified. It has been determined that a 5 mg QD dose is effective for HBV and, therefore, a plasma AUCss/24 of 300 μg·h/L was identified as the efficacy threshold.

[1] = Hematology (ANC, white blood cell count) in 12 week study in HBV patients; format: in vivo, human
Experimental: Pharmacodynamics of Elvucitabine was explored by analysis of hematology (absolute neutrophil count, ANC) data obtained from a 12 week study in HBV patients. FIG. 3 illustrates the change in mean white blood cell count from baseline for three dosages of Elvucitabine (5 mg, 20 mg, and 50 mg), 100 mg 3TC, and placebo. […] FIG. 4 is a graphic representation of the change in absolute neutrophils from baseline for the same study. Table 2 provides absolute neutrophil count at 10^9/L for the three doses resulting in a baseline estimated as the mean ANC of about 4×10^9/L. A 25 percent decrease in the mean ANC corresponds to about 3×10^9/L, the threshold for the start of toxicity.

[2] = Population PK analysis of plasma and urine data, healthy subjects, 1×20 mg tablet PO (ACH443-011); conditions: human, in vivo
Experimental: The PK model created included an individual compartmental PK analysis using ADAPT-II® and Population PK analysis using an iterative two-stage population modeling technique (IT2S®) of plasma and urine data from a study of healthy subjects, n=29, 1×20 mg tablet PO (ACH443-011). FIG. 1 illustrates the PK model of Elvucitabine according to a three compartment model characterized by two absorption peaks, each associated with a lag (Tlag1 and Tlag2) time and a first order absorption rate constant (Ka1 and Ka2).
FIG. 2 illustrates an example of individual fit using a Population PK analysis (IT2S).

[3] = PK/PD relationship: toxicity threshold and therapeutic window (simulated concentrations vs observed ANC); design: species or system human
From the text: Pharmacokinetics and pharmacodynamics modeling was used to explore potential dosing regimens for Elvucitabine. A pharmacokinetics (PK) model was developed to describe both the plasma concentration-time data and excreted urinary amounts from previously completed studies with Elvucitabine. With the PK model in hand and pharmacodynamics (PD) results of previously completed studies, the relationship of PK and PD from an efficacy and toxicity standpoint is obtained. From the results of the PK and PD studies, a therapeutic window of Elvucitabine is defined and simulated dosing regimens ranging from 5 mg BID to 100 mg Q1 week were explored using ADAPT II® Pharmacokinetic and Pharmacodynamic Systems Analysis Software. From the simulated dosing regimen results, ten dosing regimens were identified allowing maintenance therapy with Elvucitabine at levels effective against both HIV and HBV while avoiding bone toxicity.
FIG. 5 provides a plot of the mean observed ANC and a simulated concentration-time profile for the 5 mg QD dose. As shown by the graph, the toxicity threshold is not met by the dosing regimen. As provided in FIG. 6, the 20 mg QD dose crosses the toxicity threshold at about 1008 hours.
as §1

HIV = test: In vitro IC50 for HIV; format: cell-based; conditions: Human immunodeficiency virus 1
Experimental: as §1

Nc1nc(=O)n([C@H]2C=C[C@@H](CO)O2)cc1F [Elvucitabine, 4-amino-5-fluoro-1-((2R,5 S)-5-(hydroxymethyl)-2,5-dihydrofuran-2-yl)pyrimidin-2(1H)-one]
efficacy for HBV (HBV): effective | Absolute Neutrophil Count (ANC), Mean ([1]; 5 mg PO daily (n = 17), Week 0): 4.1 10^9/L | Absolute Neutrophil Count (ANC), Mean ([1]; 5 mg PO daily (n = 17), Week 2): 3.4 10^9/L | Absolute Neutrophil Count (ANC), Mean ([1]; 5 mg PO daily (n = 17), Week 4): 3.4 10^9/L | Absolute Neutrophil Count (ANC), Mean ([1]; 5 mg PO daily (n = 17), Week 8): 3.5 10^9/L | Absolute Neutrophil Count (ANC), Mean ([1]; 5 mg PO daily (n = 17), Week 12): 3.6 10^9/L | Absolute Neutrophil Count (ANC), Mean ([1]; 20 mg PO daily (n = 20), Week 0): 3.8 10^9/L | Absolute Neutrophil Count (ANC), Mean ([1]; 20 mg PO daily (n = 20), Week 2): 3.7 10^9/L | Absolute Neutrophil Count (ANC), Mean ([1]; 20 mg PO daily (n = 20), Week 4): 3.2 10^9/L | Absolute Neutrophil Count (ANC), Mean ([1]; 20 mg PO daily (n = 20), Week 8): 2.8 10^9/L | Absolute Neutrophil Count (ANC), Mean ([1]; 20 mg PO daily (n = 20), Week 12): 2.7 10^9/L | change in mean white blood cell count from baseline ([1]; 50 mg (highest dose), HBV patients, FIG. 3): significant decrease | Absolute Neutrophil Count (ANC), Mean ([1]; 50 mg PO daily (n = 19), Week 0): 4.1 10^9/L | Absolute Neutrophil Count (ANC), Mean ([1]; 50 mg PO daily (n = 19), Week 2): 3.1 10^9/L | Absolute Neutrophil Count (ANC), Mean ([1]; 50 mg PO daily (n = 19), Week 4): 2.3 10^9/L | Absolute Neutrophil Count (ANC), Mean ([1]; 50 mg PO daily (n = 19), Week 8): 2.2 10^9/L | Absolute Neutrophil Count (ANC), Mean ([1]; 50 mg PO daily (n = 19), Week 12): 2.6 10^9/L | Vd [2]: 1600 L | fraction of drug excreted unchanged in urine [2]: about 40% | half-life ([2]; distribution (λ2) half-life): 1800 min | half-life ([2]; early distribution (λ1) half-life): 35.4 min | half-life ([2]; elimination (λz) half-life): 10500 min | CLnr/F ([2]; po): 9.51 L/h | Fu ([2]; po): 39.6% | Vc/F ([2]; po): 30.6 L | Vp1/F ([2]; po): 1232 L | Vp2/F ([2]; po): 369 L | oral clearance (CL/F) ([2]; po): 16 L/h | CL renal ([2]; po, 20 mg): 105 mL/min | CL/F ([2]; po, 20 mg): 15.8 L/h | Vd/F ([2]; population PK, healthy subjects, 20 mg tablet PO, read-out: Vss/F): 1630 L | central compartment (plasma) Cmin correlating with onset of toxicity [3]: ≥ 23 µg/L | toxicity threshold (mean ANC about 3×10^9/L) ([3]; 5 mg QD, FIG. 5): not met | time at which toxicity threshold (mean ANC about 3×10^9/L) is crossed ([3]; 20 mg QD, FIG. 6): about 1008 hours | time at which toxicity threshold (mean ANC about 3×10^9/L) is reached ([3]; 50 mg QD, FIG. 7): 378 hours | Cmin for efficacy ([3]; HIV, based on in vitro IC50): ≥ 2 µg/L | plasma AUCss/24 efficacy threshold ([3]; from 5 mg QD effective for HBV): 300 µg·h/L | Cmax in deepest (P1) compartment at onset of toxicity (ANC <3×10^9/L) ([3]; human): > 40 μg/L | IC50 (HIV; corresponds to 4.8 nM, read-out: in vitro IC50 for HIV, as concentration): 1.08 ng/mL | IC50 (HIV; read-out: in vitro IC50 for HIV): 4.8 nM
